Reference: patent publication US9556217B2, “Amphiphilic compounds” (WISCONSIN ALUMNI RESEARCH FOUNDATION, priority 2012, dated 2017)

Key:
[1] = Critical micelle concentration (fluorescent dye solubilization); format: physicochemical
Text: The “Critical Micelle Concentration” (CMC) refers to the concentration of a detergent (e.g., an amphiphile as described herein) in an aqueous solution at which the detergent molecules self-assemble into micelles. Below the CMC, detergents are mostly monomeric; above the CMC, micelle concentration increases linearly with detergent concentration. The CMC is dependent upon many factors and is detergent-specific. The CMC of a detergent can be determined experimentally by measuring the solubilization of a water-insoluble dye or fluorophore while varying the concentration of detergent. A CMC may also be determined by measuring the diminution of the surface tension of an aqueous solution as a function of detergent concentration (CMCs determined by either method correlate with each other). The CMC is determined by extrapolating the plot of solubilization vs. concentration (or surface tension vs. concentration) in the two linear regions above and below the CMC. Where the two lines intersect is the CMC. The CMC can also be determined by the method of Nugebauer, J. M. (1990), Methods in Enzymology, 182:239-253.
The four compounds were readily prepared on a multi-gram scale (see Examples 1 and 2 below, and FIGS. 13-15), as is necessary if they are to serve as research tools. All four are highly soluble in aqueous solution (>20 wt %) and have relatively low critical micelle concentrations (CMC; determined by fluorescent dye solubilization).

[2] = Hydrodynamic radius of micelles by dynamic light scattering; format: physicochemical; conditions: Mean ± SD, n = 5
Text: These values are somewhat smaller than the CMC of DDM, which indicates a strong tendency of the new agents to self-assemble, and which can be advantageous for IMP handling because detrimental levels of non-micellar amphiphile can be avoided. Table 1 provides the hydrodynamic radius (Rh) of the micelles formed by each amphiphile, as determined by dynamic light scattering (DLS). The micelles formed by GLC amphiphiles are slightly smaller than those formed by DDM, while the micelles formed by GDN are slightly larger.

β2AR-T4L = β2AR-T4L thermostability (Tm, carazolol fluorescence); set-up: species or system human; conditions: for β2AR-T4L Tm comparison at higher concentrations: higher concentrations than CMC+0.05 wt %
Procedure: To assess the new amphiphiles with a GPCR, a human 132 adrenergic receptor-T4-lysozyme fusion protein (β2AR-T4L) was used (Rosenbaum et al., Science 2007, 318, 1266-1273). Stability was assessed via […] of β2AR-T4L bound to the inverse agonist carazolol. β2AR-T4L was initially solubilized and purified with DDM, and this detergent was then exchanged for the agent to be evaluated. The fluorescence emission maximum of carazolol occurs at 356 nm in aqueous solution, but emission is shifted to 341 nm in the receptor-bound state. The 341:356 nm peak intensity ratio was used to monitor the relative amounts of intact and denatured β2AR-T4L, with Tm defined as the temperature at which the 341:356 nm peak intensity ratio is half-way between that of fully native receptor and the fully denatured receptor.
Stability of β2AR-T4L was assessed by measuring the melting temperature (Tm) of the receptor according to the procedure reported by Chae and coworkers (Nat. Methods 2010, 7, 1003-1008).
A receptor fusion protein of T4 lysozyme inserted in the 3rd intracellular loop of the β2AR^4 was cloned into BestBac baculovirus (Expression Systems, CA) and expressed in Sf9 insect cell cultures. The receptor was solubilized and purified in DDM as previously described (Kobilka, Anal. Biochem. 1995, 231, 269-271). […]
For stability measurements the carazolol-bound receptor was diluted below the CMC for DDM by adding 3 μL of the concentrated receptor in a quartz cuvette containing 600 μL buffer (100 mM NaCl, 20 mM HEPES, pH 7.5) with amphiphiles at various concentrations above their CMC. […] Fluorescence emission from carazolol was obtained following 5 min incubations from 25 to 85° C. in twelve continuous 5° C. increments. Excitation was set at 325 nm, and emission was measured from 335 to 400 nm with an integration time of 0.3 s nm-1 using a bandpass of 1 nm for both excitation and emission. The 341:356 nm peak ratio was calculated and graphed using Microsoft Excel and GraphPad Prism software.

| Structure (SMILES) | CMC [1] [µM] | CMC (wt %) [1] [wt %] | Rh (nm), hydrodynamic radius of micelles [2] [nm] | β2AR-T4L Tm comparison at relatively low concentrations (β2AR-T4L; <CMC+0.05 wt %) | β2AR-T4L Tm comparison at higher concentrations (β2AR-T4L) |
| --- | --- | --- | --- | --- | --- |
| CCCCCCCCCCCCO[C@@H]1O[C@H](CO)[C@@H](O[C@H]2O[C@H](CO)[C@@H](O)[C@H](O)[C@H]2O)[C@H](O)[C@H]1O [DDM, dodecyl-β-D-maltoside, reference compound] | ~170 | ~0.0087 | 3.42 ± 0.03 | superior to the new amphiphiles |  |
| C[C@@H]1CC[C@@]2(OC1)O[C@H]1C[C@H]3[C@@H]4CC=C5C[C@@H](OCCC(CO[C@@H]6OC(CO)[C@@H](O[C@H]7OC(CO)[C@@H](O)C(O)C7O)C(O)C6O)CO[C@@H]6OC(CO)[C@@H](O[C@H]7OC(CO)[C@@H](O)C(O)C7O)C(O)C6O)CC[C@]5(C)[C@H]4CC[C@]3(C)[C@@H]1[C@@H]2C (stereo partly drawn) [GDN, glyco-diosgenin] | ~18 | ~0.0021 | 3.86 ± 0.05 |  | superior to DDM |
| CO[C@@H]1CC[C@@]2(C)[C@H](CC[C@@H]3[C@@H]2CC[C@]2(C)[C@@H]([C@H](C)CCCOCC(C)(CO[C@@H]4OC(CO)C(O[C@@H]5OC(CO)[C@@H](O)[C@H](O)C5O)[C@@H](O)C4O)CO[C@@H]4OC(CO)[C@@H](O[C@H]5OC(CO)[C@@H](O)[C@H](O)C5O)[C@H](O)C4O)CC[C@@H]32)C1 (stereo partly drawn) [GLC-2] | ~8.0 | ~0.0009 | 3.32 ± 0.04 |  | superior to DDM |
